The nature of data set [1]: refractive index (Na D-line) (dimensionless). The conditions noted are these: 298.15 K; 101.33 kPa; Liquid; Standard Abbe refractometry.
For data set [2] the following is noted: Liquid; for mass density: 101.33 kPa; for Normal boiling temperature: Ebulliometric method (Recirculating still).

What is called refractive index is the speed of light in vacuum divided by its phase velocity in the sample. In general, mass density refers to the mass of a sample divided by its volume.

Each structure is given as a SMILES string. Numbers after ± are expanded uncertainties.

As for `CC(C)(C)O` [2-methylpropan-2-ol], in data set [1], the refractive index turned out to be 1.3851 ± 0.0005. Also, the mass density in data set [2] (303.15 K) is reported as 775.4 ± 0.66 kg/m3. In addition, the Normal boiling temperature in data set [2] is 82.18 ± 0.1 °C.

Regarding `CCO` [ethanol], in data set [1], the refractive index is given as 1.3598 ± 0.0007. The mass density in data set [2] (298.15 K) is 785.04 ± 0.5 kg/m3. In data set [2], the Normal boiling temperature is 78.26 ± 0.1 °C.

Take `CC1CCCCC1` [methylcyclohexane]: in data set [1], the refractive index is 1.4208 ± 0.0005. The mass density in data set [2] (298.15 K) was determined as 764.92 ± 1.1 kg/m3. Besides, in data set [2], the Normal boiling temperature was found to be 100.81 ± 0.1 °C.

`CCC(C)CC` [3-methylpentane]: the refractive index in data set [1] is 1.3744 ± 0.0005. The mass density in data set [2] (298.15 K) amounted to 659.62 ± 1.4 kg/m3. In data set [2], the Normal boiling temperature was 63.2 ± 0.1 °C.

Source of the values: the NIST ThermoML archive (doi:10.1016/j.fluid.2007.06.008).
